Source: US5547939A, “Broad spectrum antimicrobial compounds and methods of use” (priority 1994, dated 1996)

What was measured:
[1] = system: Escherichia coli ML35; test: Agar diffusion assay, E. coli; format: cell-based; settings: E. coli ML35, FIG. 4
Protocol: (§1) The broad spectrum antimicrobial activity of indolicidin and indolicidin analogs also was determined using a gram negative bacterial strain, Escherichia coli ML35, a gram positive bacterial strain, Staphylococcus aureus 502A, and a fungus, Cryptococcus neoformans, in an agar diffusion assay, essentially as described by Hultmark et al., EMBO J. 2:571-576 (1983) as modified by Lehrer et al., J. Immunol. Meth. 137:167-173. Briefly, nutrient-containing agar (or agarose) plates were seeded with a selected target microorganism and 5-10 μl of peptide was placed into a well formed in the solid medium or onto a disc placed on the surface of the medium. Following an appropriate incubation interval, microbial growth inhibition was visualized and quantitated by measuring the clear zone around each well or disc (see, also, Selsted, 1993).

[2] = system: Staphylococcus aureus 502A; test: Agar diffusion assay, S. aureus; format: cell-based; settings: S. aureus 502a, FIG. 6
Protocol: as §1

[3] = system: Cryptococcus neoformans; test: Agar diffusion assay, C. neoformans; format: cell-based; settings: FIG. 5
Protocol: as §1

[4] = system: erythrocyte suspension; test: Hemolytic assay (erythrocyte lysis assay); format: cell-based; settings: for % Hemolysis: 30 μg peptide, 18 hr at 37° C., 100% lysis = 1% NP40
Protocol: The hemolytic activity of each peptide was examined using an erythrocyte lysis assay. An 8% (vol:vol) erythrocyte suspension in normal saline or in 80% mouse serum was incubated with 30 μg peptide. After 18 hr incubation at 37° C. intact erythrocytes were removed by centrifugation and the A550 of the supernatant was determined as a measure of hemolysis. As a control (100% lysis), supernatant was collected from an erythrocyte suspension treated with 1% NP40 detergent.

[5] = system: Escherichia coli ML35; test: Dose response bactericidal assay (CFU reduction), E. coli; format: cell-based; settings: 2 hr incubation
Protocol: (§2) The time course and dose-dependence of the antimicrobial activity of an indolicidin analog can be determined by incubating a microorganism with the analog and determining the viability after various times of incubation or after treatment with various concentrations of the analog. Assays were performed in 10 mM sodium phosphate buffer, pH 7.4, at 37° C., as described by Selsted et al. (Infect. Immun. 45:150-154 (1985), which is incorporated herein by reference).
(§3) The dose response of a gram negative bacterial strain, Escherichia coli ML35, and a gram positive bacterial strain, Staphylococcus aureus 502A, to indolicidin was determined by incubating 2×10^6 colony forming units (CFU) of log phase bacteria with 0-25 ug/ml of indolicidin for two hours. Following incubation, the cultures were serially diluted and plated on nutrient agar. […] E. coli was more susceptible than S. aureus, as>95% of the input cells were killed after 2 hr incubation with 2.5 ug/ml indolicidin. The indolicidin diluent, 0.01% acetic acid, had no effect on either bacterial strain.

[6] = system: Staphylococcus aureus 502A; test: Dose response bactericidal assay (CFU reduction), S. aureus; format: cell-based; settings: 10 ug/ml, 2 hr incubation, 2×10^6 CFU, 10 mM sodium phosphate pH 7.4, 37° C.
Protocol: as §2, §3

[7] = system: E. coli; test: Microbicidal kinetics of indolicidin; format: cell-based, Escherichia coli; settings: 25 μg/ml
Protocol: as §2
The kinetics of indolicidin antimicrobial activity was evaluated by incubating 2×10^6 E. coli with 25 ug/ml of indolicidin for 1-40 min. Following incubation for the appropriate time, an aliquot of the culture was removed and diluted and plated as described above.

[8] = five attempts to raise antibodies
[9] = saline, 8% erythrocyte suspension in normal saline
[10] = serum, 8% erythrocyte suspension in 80% mouse serum

Molecule	antimicrobial activity (clear zone) compared with indolicidin [1]	antimicrobial activity (clear zone) compared with indolicidin [2]	antimicrobial activity (clear zone) compared with indolicidin [3]	% Hemolysis [4, 9] [%]	% Hemolysis [4, 10] [%]	other results
H2 N--I--L--P--W--K--W--P--W--W--P--W--R--OH (H-ILPWKWPWWPWR-OH) [Indol-R12 --OH, indolicidin analog]	markedly less potent than indolicidin	markedly less potent than indolicidin	markedly less potent than indolicidin			
CC[C@H](C)[C@H](N)C(=O)N[C@@H](CC(C)C)C(=O)N1CCC[C@H]1C(=O)N[C@@H](Cc1c[nH]c2ccccc12)C(=O)N[C@@H](CCCCN)C(=O)N[C@@H](Cc1c[nH]c2ccccc12)C(=O)N1CCC[C@H]1C(=O)N[C@@H](Cc1c[nH]c2ccccc12)C(=O)N[C@@H](Cc1c[nH]c2ccccc12)C(=O)N1CCC[C@H]1C(=O)N[C@@H](Cc1c[nH]c2ccccc12)C(=O)N[C@@H](CCCNC(=N)N)C(=O)N[C@@H](CCCNC(=N)N)C(N)=O [Indol-R12 R13 --NH2, H2 N--I--L--P--W--K--W--P--W--W--P--W--R--R--CONH2]	greatest antimicrobial activity	greatest antimicrobial activity	greatest antimicrobial activity	78.5	2.3	% Hemolysis ([4]; saline, 8% erythrocyte suspension in normal saline, listed as indolicidin): greatest hemolytic activity; input cells killed ([5]; 2.5 ug/ml): > 95%; reduction of viability (CFU) ([5]; 10 ug/ml, 2×10^6 CFU, 10 mM sodium phosphate pH 7.4, 37° C.): reduced by at least four orders of magnitude; reduction of viability (CFU) [6]: reduced by at least four orders of magnitude; state of the culture ([7]; after 20 min): essentially was sterilized; reduction of number of E. coli CFU ([7]; within 5 min): three orders of magnitude; immunogenicity [8]: extremely low immunogenicity
CC[C@H](C)[C@H](N)C(=O)N[C@@H](CC(C)C)C(=O)N1CCC[C@H]1C(=O)N[C@@H](Cc1c[nH]c2ccccc12)C(=O)N[C@@H](CCCCN)C(=O)N[C@@H](Cc1c[nH]c2ccccc12)C(=O)N1CCC[C@H]1C(=O)N[C@@H](Cc1c[nH]c2ccccc12)C(=O)N[C@@H](Cc1c[nH]c2ccccc12)C(=O)N1CCC[C@H]1C(=O)N[C@@H](Cc1c[nH]c2ccccc12)C(=O)N[C@@H](CCCNC(=N)N)C(=O)N[C@@H](CCCNC(=N)N)C(=O)O [Indol-R12 R13 --OH, H2 N--I--L--P--W--K--W--P--W--W--P--W--R--R--OH]				47.9	3.0	
H2 N--I--L--P--W--K--W--P--W--W--P--W--K--CONH2 (H-ILPWKWPWWPWK-NH2) [Indol-K12 --NH2, indolicidin analog having a deletion of R-13 and a substitution of K-12 for R-12]						antimicrobial selectivity (antimicrobial activity relative to hemolytic activity) compared with indolicidin ([4]; FIGS. 4-6 and Table 2): greater antimicrobial selectivity than indolicidin
H2 N--I--L--P--W--K--W--P--W--W--P--W--R--N--CONH2 [Indol-R12 W13 --NH2]	markedly less potent than indolicidin	markedly less potent than indolicidin	markedly less potent than indolicidin			
